# In patent publication US9790221B2, “Heteroaryl compounds as IRAK inhibitors and uses thereof” (Merck Patent GmbH, priority 2014, dated 2017):
# Where a name gives a salt, the structure may show the parent alone.
# Legend:
# [1] = molecular target: IRAK1 (His-TEV-IRAK1 (194-712)) (Homo sapiens (Human), UniProt P51617); assay: IRAK1 enzymatic assay; format: biochemical
# Method in brief: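 Recombinant His-TEV-IRAK1 (194-712), 15 ng/well, autophosphorylation with 1 μM ATP plus [33P]ATP, 3 h at 30° C in Hepes pH 7.0 buffer with MgCl2, DTT, EGTA, BSA and Triton; compounds from 20 µM to 1 nM. The reaction was stopped with EDTA, and radioactivity was counted in streptavidin FlashPlates.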
# IRAK4 = IRAK4 (Homo sapiens (Human), UniProt Q9NWZ3); assay: IRAK4 enzymatic assay; format: biochemical
# Sequence of IRAK4 (Q9NWZ3 whole entry): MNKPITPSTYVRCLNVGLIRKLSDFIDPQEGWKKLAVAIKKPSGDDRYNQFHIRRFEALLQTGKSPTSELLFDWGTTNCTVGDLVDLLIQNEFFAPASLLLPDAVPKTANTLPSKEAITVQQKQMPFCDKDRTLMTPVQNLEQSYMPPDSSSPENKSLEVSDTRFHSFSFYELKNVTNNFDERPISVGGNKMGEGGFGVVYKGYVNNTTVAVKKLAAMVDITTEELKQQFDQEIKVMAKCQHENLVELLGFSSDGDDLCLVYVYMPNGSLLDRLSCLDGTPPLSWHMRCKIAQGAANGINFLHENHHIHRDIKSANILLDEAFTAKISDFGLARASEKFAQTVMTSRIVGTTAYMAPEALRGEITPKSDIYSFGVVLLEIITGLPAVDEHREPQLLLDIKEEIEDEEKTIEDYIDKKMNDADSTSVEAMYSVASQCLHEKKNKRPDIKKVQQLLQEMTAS
# Method in brief: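 Recombinant His-TEV-IRAK4 (20 ng/well) phosphorylating biotinylated STK1 peptide (300 nM) with 2 μM ATP plus [^33P]ATP, 3 h at 30° C in pH 7.0 Hepes buffer with Mg2+ and Mn2+. Compounds 20 µM to 1 nM; EDTA stop, radioactivity captured on streptavidin FlashPlates.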
# [2] = system: TLR7 induced IL-6 secretion in human mononuclear cells (PBMC's); assay: TLR7 induced IL-6 in human PBMC's; format: cell-based; conditions: Homo sapiens, PBMC, read-out: TLR7 induced IL-6 secretion in hPBMC's (IC50)
# Description: TLR7 Induced IL-6 in Human PBMC's
# Human PBMC assay was used as one of the functional assay a to monitor the activity of IRAK1 and IRAK4 small molecule inhibitors on TLR7 induced IL-6 secretion in human mononuclear cells (PBMC's). Human PBMCs were prepared from buffy coats (whole blood enriched with leukocytes and platelets) obtained from healthy volunteers used either fresh or frozen are plated in assay media (RPMI+2% P/S/L-glu+10% HI-FBS) and pre-treated with compounds in DMSO/media (range of concentrations from 25 uM to 0.4 nM) or controls (0.25% DMSO) for 30 minutes at 37° C. in assay media. Following pre-treatment with IRAK1 and IRAK4 inhibitors, PBMC's were stimulated with TLR7 specific ligand (2 uM) overnight (16-18 hrs) at 37° C. After incubation supernatant was transferred to 384 well PE AlphaPlate-384 (6005350) and IL-6 is quantified using Perkin Elmer IL-6 Alpha LISA kit (AL223C). Plates were read on an Envision® plate reader with Alpha Technology®.
# Sequence of IRAK1 (His-TEV-IRAK1 (194-712)) (P51617 194-712): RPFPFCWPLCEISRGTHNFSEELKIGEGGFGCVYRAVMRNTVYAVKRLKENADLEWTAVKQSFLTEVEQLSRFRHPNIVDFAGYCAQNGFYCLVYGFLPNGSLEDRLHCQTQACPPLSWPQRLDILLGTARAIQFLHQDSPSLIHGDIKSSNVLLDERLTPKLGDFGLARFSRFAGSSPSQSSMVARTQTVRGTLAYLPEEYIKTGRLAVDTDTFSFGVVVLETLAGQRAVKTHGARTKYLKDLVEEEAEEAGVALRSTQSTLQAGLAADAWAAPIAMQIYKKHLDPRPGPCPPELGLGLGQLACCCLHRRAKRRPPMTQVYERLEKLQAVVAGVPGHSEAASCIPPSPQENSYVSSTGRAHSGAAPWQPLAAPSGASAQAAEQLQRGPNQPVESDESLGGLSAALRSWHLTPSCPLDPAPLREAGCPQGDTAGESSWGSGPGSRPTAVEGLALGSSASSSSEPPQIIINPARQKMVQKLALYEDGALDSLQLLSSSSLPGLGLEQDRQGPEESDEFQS
Structure (SMILES),IC50 [1] [nM],IC50 (IRAK4) [nM],IC50 [2] [nM]
Cn1cc(-c2cccc(-c3ncc(-c4cnn(C)c4)c(NC[C@@H](O)CO)n3)c2)cn1 [Example 56],> 5000,< 100,1000 to 5000
CC(=O)NCCNc1nc(-c2cccc(-c3cnn(C)c3)c2)ncc1-c1cnn(C)c1 [Example 57],100 to 1000,100 to 1000,> 5000
Cn1cc(-c2cccc(-c3ncc(-c4cnn(C)c4)c(N[C@H]4CCC(=O)NC4)n3)c2)cn1 [Example 60],1000 to 5000,100 to 1000,1000 to 5000
Cn1cc(-c2cccc(-c3ncc(-c4cnn(C)c4)c(N[C@H]4C[C@@H](N)C4)n3)c2)cn1 [Example 62],1000 to 5000,100 to 1000,1000 to 5000
Cn1cc(-c2cccc(-c3ncc(-c4cnn(C)c4)c(NCC4COC4)n3)c2)cn1 [Example 63],100 to 1000,< 100,1000 to 5000
Cn1cc(-c2cccc(-c3ncc(-c4cnn(C)c4)c(NC4CC5(CC(N)C5)C4)n3)c2)cn1 (stereo not drawn) [Example 65],100 to 1000,< 100,100 to 1000
Cn1cc(-c2cccc(-c3ncc(-c4cnn(C)c4)c(NC45CCC(N)(C4)C5)n3)c2)cn1 [Example 66],< 100,< 100,100 to 1000
Cn1cc(-c2cccc(-c3ncc(-c4cnn(C)c4)c(NCC4CCNC(=O)C4)n3)c2)cn1 (stereo not drawn) [Example 76],1000 to 5000,100 to 1000,> 5000
Cn1cc(-c2cccc(-c3ncc(-c4cnn(C)c4)c(NCC4[C@H]5CNC[C@@H]45)n3)c2)cn1 (stereo partly drawn) [Example 77],> 5000,100 to 1000,1000 to 5000
Cn1cc(-c2cccc(-c3ncc(-c4ccn(C)n4)c(NCC4CC(F)(F)C4)n3)c2)cn1 [Example 81],1000 to 5000,100 to 1000,> 5000
Cn1cc(-c2cccc(-c3ncc(-c4ccn(C)n4)c(NC[C@@H](O)CO)n3)c2)cn1 [Example 83],1000 to 5000,100 to 1000,100 to 1000
Cn1cc(-c2cccc(-c3ncc(-c4ccn(C)n4)c(NCCN4CCS(=O)(=O)CC4)n3)c2)cn1 [Example 84],1000 to 5000,100 to 1000,> 5000
Cn1cc(-c2cccc(-c3ncc(-c4cnn(C)c4)c(NCCC4CCNC4)n3)c2)cn1 (stereo not drawn) [Example 85],> 5000,100 to 1000,1000 to 5000
"Cn1cc(-c2cccc(-c3ncc(-c4cnn([C@H]5CC[C@]6(CCC(=O)N6C)CC5)c4)c(NCC4CCNCC4)n3)c2)cn1 [Example 86, 1-Methyl-8-(4-{2-[3-(1-methyl-1H-pyrazol-4-yl)-phenyl]-4-[(piperidin-4-ylmethyl)-amino]-pyrimidin-5-yl}-pyrazol-1-yl)-1-aza-spiro[4.5]decan-2-one Hydrochloride]",1000 to 5000,< 100,> 5000
"CN1CCC(CNc2nc(-c3cccc(-c4cnn(C)c4)c3)ncc2-c2cnn([C@H]3CC[C@]4(CCC(=O)N4C)CC3)c2)CC1 [Example 87, 1-Methyl-8-(4-{4-[(1-methyl-piperidin-4-ylmethyl)-amino]-2-[3-(1-methyl-1H-pyrazol-4-yl)-phenyl]-pyrimidin-5-yl}-pyrazol-1-yl)-1-aza-spiro[4.5]decan-2-one]",1000 to 5000,< 100,1000 to 5000
Cn1cc(-c2cccc(-c3ncc(-c4ccn(C)n4)c(NC4(CO)COC4)n3)c2)cn1 [Example 93],100 to 1000,< 100,100 to 1000
Cn1cc(-c2cccc(-c3ncc(-c4ccn(C)n4)c(NCCCCO)n3)c2)cn1 [Example 97],100 to 1000,< 100,1000 to 5000
Cn1cc(-c2cccc(-c3ncc(-c4ccn(C)n4)c(NC4CC(CN)(CCl)C4)n3)c2)cn1 (stereo not drawn) [Example 99],100 to 1000,< 100,100 to 1000
Cn1cc(-c2cccc(-c3ncc(-c4cnn(C)c4)c(NCCCCO)n3)c2)cn1 [Example 101],1000 to 5000,< 100,100 to 1000
Cn1cc(-c2cccc(-c3ncc(-c4cnn(C)c4)c(NCC4(O)CCNCC4(C)C)n3)c2)cn1 (stereo not drawn) [Example 112],1000 to 5000,100 to 1000,1000 to 5000
Cn1cc(-c2cccc(-c3ncc(-c4ccn(C)n4)c(NCC4CNCCO4)n3)c2)cn1 (stereo not drawn) [Example 115],> 5000,100 to 1000,100 to 1000
Cn1cc(-c2cccc(-c3ncc(-c4cnn(C)c4)c(OCC4CCCO4)n3)c2)cn1 (stereo not drawn) [Example 118],1000 to 5000,< 100,1000 to 5000
